Where “and” joins values, the source holds several entries; their conditions need not be identical. Equal entries are not always repeated. Inconclusive results and toxic doses are left out. The calls were made as follows: active = survival T/C of 150% or more; inactive = T/C below 125% in these data.
Test system: P388 leukemia ip, CD2F1 mice, survival T/C
Experiment: NCI In Vivo Anticancer Drug Screen. Data for tumor model P388 Leukemia (intraperitoneal) in CD2F1 (CDF1) mice
Settings: endpoint: median survival time, higher = longer survival
Outline: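 Mice carrying the transplanted tumor received test compound or vehicle. Survival was recorded in each group, and the value is the treated-group measurement divided by that of the vehicle-treated control group.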

[1] = dose: 50.0 mg/kg/injection, schedule: Q01DX009 (ip), vehicle: saline
[2] = dose: 100.0 mg/kg/injection, schedule: Q01DX009 (ip), vehicle: saline
[3] = dose: 200.0 mg/kg/injection, schedule: Q01DX009 (ip), vehicle: saline
[4] = dose: 50.0 mg/kg/injection, schedule: Q01DX009 (ip), vehicle: Klucel (hydroxypropylcellulose) (HPC)
[5] = dose: 100.0 mg/kg/injection, schedule: Q01DX009 (ip), vehicle: Klucel (hydroxypropylcellulose) (HPC)
[6] = dose: 200.0 mg/kg/injection, schedule: Q01DX009 (ip), vehicle: Klucel (hydroxypropylcellulose) (HPC)
[7] = dose: 50.0 mg/kg/injection, schedule: Q01DX009 (ip), vehicle: saline with Tween-80
[8] = dose: 100.0 mg/kg/injection, schedule: Q01DX009 (ip), vehicle: saline with Tween-80
[9] = dose: 12.5 mg/kg/injection, schedule: Q01DX009 (ip), vehicle: Klucel (hydroxypropylcellulose) (HPC)
[10] = dose: 25.0 mg/kg/injection, schedule: Q01DX009 (ip), vehicle: Klucel (hydroxypropylcellulose) (HPC)
[11] = dose: 0.25 % in 0.5 ml injection vol, schedule: Q01DX009 (ip), vehicle: water
[12] = dose: 0.5 % in 0.5 ml injection vol, schedule: Q01DX009 (ip), vehicle: water
[13] = dose: 1.0 % in 0.5 ml injection vol, schedule: Q01DX009 (ip), vehicle: water
[14] = dose: 200.0 mg/kg/injection, schedule: Q01DX009 (ip), vehicle: saline with Tween-80
[15] = dose: 100.0 mg/kg/injection, schedule: Q04DX002 (ip), vehicle: saline with Tween-80
[16] = dose: 200.0 mg/kg/injection, schedule: Q04DX002 (ip), vehicle: saline with Tween-80
[17] = dose: 400.0 mg/kg/injection, schedule: Q04DX002 (ip), vehicle: saline with Tween-80

Measured: T/C

Cc1nn(C(=O)c2ccncc2)c(C)c1N=Nc1c(C)[nH]n(-c2ccccc2)c1=O
inactive: dose: 100.0 mg/kg/injection, schedule: Q04DX003 (ip), vehicle: Klucel (hydroxypropylcellulose) (HPC) 95 % of control | dose: 200.0 mg/kg/injection, schedule: Q04DX003 (ip), vehicle: Klucel (hydroxypropylcellulose) (HPC) 102 % of control | dose: 400.0 mg/kg/injection, schedule: Q04DX003 (ip), vehicle: Klucel (hydroxypropylcellulose) (HPC) 101 % of control

O=S(=O)(O)CCCS(=O)(=O)O
inactive: [1] 98 % of control | [2] 98 % of control | [3] 101 % of control

CCCSP(=S)(c1ccc(Cl)cc1)c1ccc(Cl)cc1
inactive: dose: 100.0 mg/kg/injection, schedule: Q04DX002 (ip), vehicle: saline 106 % of control | dose: 200.0 mg/kg/injection, schedule: Q04DX002 (ip), vehicle: saline 103 % of control | dose: 400.0 mg/kg/injection, schedule: Q04DX002 (ip), vehicle: saline 103 % of control

O=C1/C(=C/c2ccc(Br)cc2)CCc2ccccc21
inactive: [4] 105 % of control | [5] 111 % of control | [6] 105 % of control

C=CCN(CC=C)c1ncnc2[nH]ncc12
inactive: dose: 100.0 mg/kg/injection, schedule: Q04DX003 (ip), vehicle: saline with Tween-80 100 % of control | dose: 200.0 mg/kg/injection, schedule: Q04DX003 (ip), vehicle: saline with Tween-80 100 % of control | dose: 400.0 mg/kg/injection, schedule: Q04DX003 (ip), vehicle: saline with Tween-80 100 % of control

Cc1cccc(CNc2cccc(C)n2)n1
inactive: dose: 50.0 mg/kg/injection, schedule: Q01DX005 (ip), vehicle: saline 105 % of control | dose: 100.0 mg/kg/injection, schedule: Q01DX005 (ip), vehicle: saline 97 % of control

CCCCCCC(/C=C/c1ccccc1Cl)=N\O
inactive: [4] 92 % of control | [5] 100 % of control | [6] 105 % of control

CN1C(=O)CC(Sc2ccccc2)c2ccccc21 (stereo not drawn)
inactive: dose: 25.0 mg/kg/injection, schedule: Q01DX009 (ip), vehicle: saline with Tween-80 96 % of control | [7] 97 % of control | [8] 93 % of control

C=CC(=O)CC1(C(=O)OC)NC(=S)NC(=O)C1C#N (stereo not drawn)
inactive: dose: 60.0 mg/kg/injection, schedule: Q01DX005 (ip), vehicle: Klucel (hydroxypropylcellulose) (HPC) 102 % of control | dose: 120.0 mg/kg/injection, schedule: Q01DX005 (ip), vehicle: Klucel (hydroxypropylcellulose) (HPC) 102 % of control | dose: 240.0 mg/kg/injection, schedule: Q01DX005 (ip), vehicle: Klucel (hydroxypropylcellulose) (HPC) 98 % of control

C[N+](C)(C)C[c-]1[c-][c-][c-][c-]1.[Fe].[c-]1[c-][c-][cH-][c-]1
inactive: dose: 1.56 mg/kg/injection, schedule: Q01DX009 (ip), vehicle: saline with Tween-80 96 % of control | dose: 3.13 mg/kg/injection, schedule: Q01DX009 (ip), vehicle: saline with Tween-80 97 % of control | dose: 6.25 mg/kg/injection, schedule: Q01DX009 (ip), vehicle: saline with Tween-80 99 % of control | dose: 12.5 mg/kg/injection, schedule: Q01DX009 (ip), vehicle: saline with Tween-80 100 % of control

Nc1cc(Cl)ccc1-c1ccccc1
inactive: [5] 95 % of control | [6] 92 % of control

[CH3][Sn]([CH3])([O]c1cccccc1=O)[O]c1cccccc1=O
inactive: dose: 25.0 mg/kg/injection, schedule: Q01DX001 (ip), vehicle: Klucel (hydroxypropylcellulose) (HPC) 99 % of control | dose: 50.0 mg/kg/injection, schedule: Q01DX001 (ip), vehicle: Klucel (hydroxypropylcellulose) (HPC) 99 % of control | dose: 100.0 mg/kg/injection, schedule: Q01DX001 (ip), vehicle: Klucel (hydroxypropylcellulose) (HPC) 100 % of control

O=Cc1ccccc1
inactive: [9] 98 % of control | [10] 99 % of control and 100 % of control and 115 % of control | [4] 100 % of control and 103 % of control and 107 % of control | [5] 100 % of control and 97 % of control and 98 % of control | [6] 100 % of control and 109 % of control and 95 % of control | [11] 99 % of control | dose: 400.0 mg/kg/injection, schedule: Q01DX009 (ip), vehicle: Klucel (hydroxypropylcellulose) (HPC) 93 % of control and 98 % of control | [12] 100 % of control | [13] 100 % of control

C=CCNc1ncnc2sc(SC)nc12
inactive: dose: 100.0 mg/kg/injection, schedule: Q04DX002 (ip), vehicle: distilled water + alcohol 100 % of control | dose: 200.0 mg/kg/injection, schedule: Q04DX002 (ip), vehicle: distilled water + alcohol 104 % of control | dose: 400.0 mg/kg/injection, schedule: Q04DX002 (ip), vehicle: distilled water + alcohol 99 % of control

O=c1[nH]c2cc([N+](=O)[O-])ccc2nc1/C=C(\O)c1cccc([N+](=O)[O-])c1
inactive: dose: 30.0 mg/kg/injection, schedule: Q01DX005 (ip), vehicle: Klucel + Tween-80 96 % of control | dose: 60.0 mg/kg/injection, schedule: Q01DX005 (ip), vehicle: Klucel + Tween-80 88 % of control and 90 % of control | dose: 120.0 mg/kg/injection, schedule: Q01DX005 (ip), vehicle: Klucel + Tween-80 87 % of control | dose: 240.0 mg/kg/injection, schedule: Q01DX005 (ip), vehicle: Klucel + Tween-80 89 % of control

CC(=O)Nc1cccc2c1C(=O)OC2=O
inactive: [7] 100 % of control | [8] 109 % of control | [14] 108 % of control | dose: 400.0 mg/kg/injection, schedule: Q01DX009 (ip), vehicle: saline with Tween-80 102 % of control

CCCC(=O)OCc1ccc(Cl)c(Cl)c1
inactive: dose: 25.0 mg/kg/injection, schedule: Q04DX003 (ip), vehicle: saline 100 % of control | dose: 50.0 mg/kg/injection, schedule: Q04DX003 (ip), vehicle: saline 104 % of control | dose: 100.0 mg/kg/injection, schedule: Q04DX003 (ip), vehicle: saline 100 % of control

CCC(=O)Sc1ccccc1C(=O)Nc1ccc(Cl)cc1
inactive: [8] 121 % of control and 86 % of control | [14] 97 % of control

O=C(O)O
inactive: dose: 25.0 mg/kg/injection, schedule: Q01DX009 (ip), vehicle: saline 102 % of control | [1] 94 % of control and 93 % of control | [8] 100 % of control | [2] 99 % of control and 95 % of control | [14] 95 % of control | [3] 98 % of control and 102 % of control | dose: 200.0 mg/kg/injection, schedule: Q04DX003 (ip), vehicle: saline sonified 100 % of control | [11] 98 % of control | dose: 400.0 mg/kg/injection, schedule: Q04DX003 (ip), vehicle: saline sonified 100 % of control | [12] 100 % of control | [13] 102 % of control | dose: 4.0 % in 0.5 ml injection vol, schedule: Q01DX009 (ip), vehicle: water 100 % of control and 102 % of control | dose: 8.0 % in 0.5 ml injection vol, schedule: Q01DX009 (ip), vehicle: water 99 % of control and 95 % of control

O=C(O)CC(Sc1ccc(Cl)cc1)C(=O)Nc1ccccc1 (stereo not drawn)
inactive: dose: 60.0 mg/kg/injection, schedule: Q01DX005 (ip), vehicle: saline with Tween-80 99 % of control | dose: 120.0 mg/kg/injection, schedule: Q01DX005 (ip), vehicle: saline with Tween-80 95 % of control | dose: 240.0 mg/kg/injection, schedule: Q01DX005 (ip), vehicle: saline with Tween-80 98 % of control

CCOC(=O)c1sc(SSc2sc(C(=O)OCC)c(-c3ccccc3)c2[N+](=O)[O-])c([N+](=O)[O-])c1-c1ccccc1
inactive: [15] 104 % of control | [16] 107 % of control | [17] 118 % of control

CC(C)=CCC/C(C)=C/CC/C(C)=C/CS(=O)(=O)c1ccc(C)cc1
inactive: [7] 105 % of control | [8] 105 % of control | [14] 109 % of control

O=c1c(-c2ccccc2)c(O)on1/C=C1/C=CC=N1
inactive: [7] 105 % of control | [8] 95 % of control | [14] 103 % of control

O=C(/C=C\c1ccc(C2OCCO2)cc1)c1ccccc1
inactive: [15] 111 % of control | [16] 103 % of control | [17] 92 % of control

O=C(O)c1ccc(-c2nn[nH]n2)cc1
inactive: dose: 6.25 mg/kg/injection, schedule: Q01DX009 (ip), vehicle: Klucel (hydroxypropylcellulose) (HPC) 107 % of control | [9] 103 % of control | [10] 110 % of control | [5] 92 % of control | [6] 89 % of control

From PubChem BioAssay AID330 (DTP/NCI, 2004)
